Measurements reported in article PMC9286045 (Journal of Peptide Science, 2021).
Several values for one entry are separate records, joined by “and”; a condition that tells them apart may be missing. Identical values can stand only once. Like-named read-outs stand apart in the source and are kept apart here. Numbered stars: 1 amine (or outer) side, 2 acyl side, 3 side chain; on linkers, the order of the positions; unused ones are H or OH. Bridge positions count the residues as written; N and C are the ends. Square brackets hold non-standard residues; d marks the D form. Peptide text beside a SMILES is read from it. Abu(4-yl) = O=C([C@H](CC[*:3])N[*:1])[*:2]; X1 = O=C([C@@H](O)CS[*:2])[*:1]; X2 = O=C(CCC[*:2])[*:1]

Columns and labels:
[1] = test system: OXT-receptor compartment of the potassium depolarized rat myometrium
From the text: (§1) Female virgin Sprague–Dawley rats (body weight approximately 200 g) in natural oestrus (detected by vaginal smears) were sacrificed by decapitation, both uterus horns were dissected and the perimetrium was pulled off. Their middle sections (approximately 15 mm) were longitudinally cut into 3‐ to 4‐mm strips; the endometrium (the inward layer of the horns) was removed by scraping. In average, three strips of each animal (31 rats in total) were used in the experiments.
(§2) A stripe was mounted in an adapted annealed organ chamber (17 mm × 65 mm) with a ventilation inlet tube containing 10‐ml Munsick medium (see above) and attached to an isometric force transducer. The basic tension was adjusted to 10 ± 0.2 mN (1 gf, gram‐force). Measurements were carried out at 30°C under continuous ventilation with Carbogen gas (25% O2 + 5% CO2). […] Each strip used for stimulation by a single peptide (for concentration of stimulating agents, cf. Table 2). Oil‐immersion and washout experiments were carried out on different strips from the same animal. Stimulation runs (two to four per strip) for each peptide were repeated on strips of different rat uteri.
(§3) Tonic contraction of the depolarized myometrium strips in a high potassium Ringer organ bath medium[46] (concentration of Ca^2+ and of Mg^2+: 0.5 mM) was elicited by roughly equipotent concentrations of single peptides around their D 2 values (the concentration causes the half of the maximally attainable contraction in oestrogen‐dominated myometrium). After reaching a steady‐state level (stimulation phase), the medium was exchanged by a low viscosity paraffin oil (oil‐immersion phase) or alternatively by the peptide‐free bath medium (washout phase). The time‐tension profiles of the strip were recorded by an isometric force transducer (Statham strain gauge UC3).
(§4) We employed here its modified version focused on the comparison of clearance and transport rate constants (Figure 2). It consists virtually of two distribution spaces: the receptor compartment (subscript r; see Section 4) and the external aqueous tissue medium (w). The rate of mass transport of agents through the tissue‐medium interface (transport constants k r , k w ) is directly proportional to the rate constant of diffusion k (dimension: volume/time) and inversely proportional to the respective compartment volume V r , V w : for the receptor compartment k r = k/V r , for the medium k w = k/V w . The constant κ relates to the (irreversible) clearance rate from the receptor compartment (dimension: time^−1). The rate equations determining the time response of the peptide concentrations in the corresponding compartments (c r , c w ) are then (1a) c˙w=−kcw−cr/Vw, (1b) c˙r=kcw−cr/Vr−κcr, wherein dotted symbols denote first derivatives with respect to time t: x˙≡dx/dt . • In the stimulation phase, concentration c w is expected to be constant, c w = c 0 (and c˙w=0 ) within the time interval of stimulation; the integration of Equation 1b yields (2) crt=cr,∞1−e^−kr+κt, where c r,∞ is a steady state value of c r , (3) cr,∞≡limt→∞crt=c0kr/kr+κ.
(§5) • In the wash‐out decay phase, the concentration in the external medium (c w ) is kept zero by a quick perifusion; c r,∞ is the initial value (t = 0), i.e., a c r steady state value before termination of the stimulation phase, (4) crt=cr,∞e^−kr+κt.
(§6) The sum k r + κ stands for the cumulative clearance rate constant of the peptide in the receptor compartment. • The insertion of oil (oil‐immersion decay phase) reduces the volume V w to a small residual aqueous layer v w around the tissue; obviously, v w ≪ V w and the corresponding modified mass transport rate constant kw′=k/vw is very large, limvw→0kw′=∞ .

[2] = test system: OXT-receptor compartment of the potassium depolarized rat myometrium; test: Oil-immersion (stopped-transport) and washout time–response experiments on myometrium strips; details: for Cumulative clearance k r + κ / k r (transport rate constant between receptor compartment and aqueous medium) / κ Observed (irreversible clearance rate constant in the receptor compartment): K+-depolarized rat myometrium strip ex vivo, 30°C, arithmetic mean ± SD of computation runs; for Cumulative clearance k r + κ: washout decay phase; for k r (transport rate constant between receptor compartment and aqueous medium): from combined oil-immersion and washout data; for κ Observed (irreversible clearance rate constant in the receptor compartment): high potassium Ringer medium (Ca2+, Mg2+ 0.5 mM), oil-immersion decay phase, isometric tension, nonlinear regression; for κ (N) − κ (D): κ-difference of coherent N & D pairs, value shared by both peptides of the pair, C1,6OT/DC1,6OT pair uses predicted κ
From the text: as §1, §2, §3, §4, §5, §6

[3] = rats, cited from earlier work
[4] = human, in vivo; cited from earlier work
[5] = test system: OXT-receptor compartment of the potassium depolarized rat myometrium; test: Fragmented inactivation model of GOT and DGOT (oil-immersion time–response data); format: in vitro ADME; details: for κ AM (rate constant of residual clearance) / κ c (rate constant of ester hydrolysis [Glu(OMe)^4]‐X → [Glu^4]‐X): K+-depolarized rat myometrium, oil-immersion, arithmetic mean ± SD; for κ AM (rate constant of residual clearance): assumption κ A ≈ κ M, runs in parentheses; for κ c (rate constant of ester hydrolysis [Glu(OMe)^4]‐X → [Glu^4]‐X): nonlinear regression Equation 17, number of computation runs in parentheses, 95% confidence limits in < >; for Δκ AM: difference of mean values κ AM (GOT) − κ AM (DGOT), expected rate constant of N-terminal (aminopeptidase) splitting; for Estimates of κ: κ AM + κ c: sum of fragments
From the text: This is an alternative to model represented by Equation 12b, whereε A (t), ε M (t) are response fractions of the respective primary agents and of its active metabolite(s) (16a) ε˙At=−κc+κAεAt, (16b) ε˙Mt=κcεAt−κMεMt.
Figure 6 depicts the proposed reaction scheme.
Δ α = α M /α A is the standardised biological activity (e.g., in IU/mg). Exponential constants for GOT and DGOT were obtained by the nonlinear regression analysis using numeric procedures described above and are summarized in Table 3.

[6] = test system: uterus; details: cited from earlier work

Compound | Cumulative clearance k r + κ [2] [min⁻¹] | k r (transport rate constant between receptor compartment and aqueous medium) [2] [min⁻¹] | κ Observed (irreversible clearance rate constant in the receptor compartment) [2] | κ (N) − κ (D) [2] [min⁻¹] | further results
[6,1‐(2‐Amino‐4‐thiasuberic acid)]‐OXT [DC6OT] | – | – | – | – | Cumulative clearance k r + κ [1]: 0.147 ± 0.015 min⁻¹; κ Observed (irreversible clearance rate constant in the receptor compartment) [1]: 0.105 ± 0.008 min⁻¹
CC[C@H](C)[C@@H]1NC(=O)[C@H](Cc2ccc(O)cc2)NC(=O)[C@@H](O)CSSC[C@@H](C(=O)N2CCC[C@H]2C(=O)N[C@@H](CC(C)C)C(=O)NCC(N)=O)NC(=O)[C@H](CC(N)=O)NC(=O)[C@H](CCC(N)=O)NC1=O [HOT, [1‐(2‐Hydroxy‐3‐β‐mercaptopropanoic acid)]‐OXT] (YIQNCPLG-NH2; linker N-5 via X1) | 0.289 ± 0.010 | 0.139 ± 0.012 | 0.141 ± 0.008 min⁻¹ | – | –
CC[C@H](C)[C@@H]1NC(=O)[C@H](Cc2ccc(O)cc2)NC(=O)[C@@H](N)CSSC[C@@H](C(=O)N2CCC[C@H]2C(=O)N[C@@H](CC(C)C)C(=O)NNC(N)=O)NC(=O)[C@H](CC(N)=O)NC(=O)[C@H](CCC(N)=O)NC1=O [AOT, [9‐Azaglycine]‐OXT] | 0.278 ± 0.015 | 0.158 ± 0.020 | 0.118 ± 0.008 min⁻¹ | 0.076 | –
CC[C@H](C)[C@@H]1NC(=O)[C@H](Cc2ccc(O)cc2)NC(=O)[C@@H](N)CCCC[C@@H](C(=O)N2CCC[C@H]2C(=O)N[C@@H](CC(C)C)C(=O)NCC(N)=O)NC(=O)[C@H](CC(N)=O)NC(=O)[C@H](CCC(N)=O)NC1=O [C1,6OT, [1,6‐α′,α‐diaminosuberic acid]‐OXT] | 0.263 ± 0.009 | 0.194 ± 0.011 | 0.076 ± 0.005 min⁻¹ | – | –
CC[C@H](C)[C@@H]1NC(=O)[C@H](Cc2ccc(O)cc2)NC(=O)CCSSC[C@@H](C(=O)N2CCC[C@H]2C(=O)N[C@@H](CC(C)C)C(=O)NNC(N)=O)NC(=O)[C@H](CC(N)=O)NC(=O)[C@H](CCC(N)=O)NC1=O [DAOT, [1‐β‐mercaptopropionic acid, 9‐azaglycine]‐OXT] | 0.194 ± 0.033 | 0.139 ± 0.044 | 0.042 ± 0.015 min⁻¹ | 0.076 | –
CC[C@H](C)[C@@H]1NC(=O)[C@H](Cc2ccc(O)cc2)NC(=O)CCSSC[C@@H](C(=O)N2CCC[C@H]2C(=O)N[C@@H](CC(C)C)C(=O)NCC(N)=O)NC(=O)[C@H](CC(N)=O)NC(=O)[C@H](CCC(N)=O)NC1=O [DOT, [1‐β‐mercaptopropionic acid]‐OXT] | 0.176 ± 0.024 | 0.149 ± 0.026 | 0.049 ± 0.021 min⁻¹ | 0.088 | –
CC[C@H](C)[C@@H]1NC(=O)[C@H](Cc2ccc(O)cc2)NC(=O)[C@@H](N)CSSC[C@@H](C(=O)N2CCC[C@H]2C(=O)N[C@@H](CC(C)C)C(=O)NCC(N)=O)NC(=O)[C@H](CC(N)=O)NC(=O)[C@H](CCC(N)=O)NC1=O [OXT, Oxytocin, reference compound] | 0.254 ± 0.028 | 0.137 ± 0.030 | 0.137 ± 0.025 min⁻¹ | 0.088 | half‐life ([3]; regardless of gender and reproductive cycle): 1.65 min; elimination rate constant ([3]; related to the half-life of 1.65 min): 0.6 min⁻¹; half‐life in the blood plasma [4]: 1.5 to 8 min
CC[C@H](C)[C@@H]1NC(=O)[C@H](Cc2ccc(O)cc2)NC(=O)[C@@H](N)CCSC[C@@H](C(=O)N2CCC[C@H]2C(=O)N[C@@H](CC(C)C)C(=O)NCC(N)=O)NC(=O)[C@H](CC(N)=O)NC(=O)[C@H](CCC(N)=O)NC1=O [Peptide C1OT, [6,1‐Cystathionine]‐OXT] (H-[Abu(4-yl)]YIQNCPLG-NH2; thioether 1-6) | 0.272 ± 0.037 | 0.116 ± 0.041 | 0.162 ± 0.032 min⁻¹ | 0.060 | –
CC[C@H](C)[C@@H]1NC(=O)[C@H](Cc2ccc(O)cc2)NC(=O)CCCSC[C@@H](C(=O)N2CCC[C@H]2C(=O)N[C@@H](CC(C)C)C(=O)NCC(N)=O)NC(=O)[C@H](CC(N)=O)NC(=O)[C@H](CCC(N)=O)NC1=O [DC1OT, [1,6‐(2‐Amino‐4‐thiasuberic acid)]‐OXT] (YIQNCPLG-NH2; linker N-5 via X2) | 0.160 ± 0.021 | 0.097 ± 0.025 | 0.102 ± 0.016 min⁻¹ | 0.060 | –
CC[C@H](C)[C@@H]1NC(=O)[C@H](Cc2ccc(O)cc2)NC(=O)CCSSC[C@@H](C(=O)N2CCC[C@H]2C(=O)N[C@@H](CC(C)C)C(=O)NCC(N)=O)NC(=O)[C@H](CC(N)=O)NC(=O)[C@H](CCC(=O)OC)NC1=O [DGOT, [1‐β‐mercaptopropionic acid, 4‐glutamic acid‐δ‐methylester]‐OXT] | 0.211 ± 0.027 | 0.107 ± 0.034 | 0.076 ± 0.018 min⁻¹ and 0.076 min⁻¹ | 0.092 | κ AM (rate constant of residual clearance) [5]: 0.053 ± 0.014 (14) <0.045; 0.061> min^−1; κ c (rate constant of ester hydrolysis [Glu(OMe)^4]‐X → [Glu^4]‐X) [5]: 0.032 ± 0.011 (14) <0.025; 0.038> min^−1; Δκ AM [5]: 0.081 min⁻¹; Estimates of κ: κ AM + κ c [5]: 0.085 min⁻¹
CC[C@H](C)[C@@H]1NC(=O)[C@H](Cc2ccc(O)cc2)NC(=O)[C@@H](N)CSSC[C@@H](C(=O)N2CCC[C@H]2C(=O)N[C@@H](CC(C)C)C(=O)NCC(N)=O)NC(=O)[C@H](CC(N)=O)NC(=O)[C@H](CCC(=O)OC)NC1=O [GOT, [4‐Glutamic acid‐δ‐methylester]‐OXT] | 0.267 | 0.108 | 0.166 min⁻¹ | 0.092 | κ AM (rate constant of residual clearance) [5]: 0.134 ± 0.025 (12) <0.132; 0.135> min^−1; κ c (rate constant of ester hydrolysis [Glu(OMe)^4]‐X → [Glu^4]‐X) [5]: 0.033 ± 0.012 (22) <0.028; 0.038> min^−1; Δκ AM [5]: 0.081 min⁻¹; Estimates of κ: κ AM + κ c [5]: 0.167 min⁻¹
[7‐glycine]‐oxytocin | – | – | – | – | ex vivo half‐life of uterotonic response as compared with oxytocin [6]: considerably shorter half‐life
